The values that follow come from patent publication US20250152651A1, “COMPOSITIONS AND METHODS FOR EXTRACTING COMPOUNDS” (Unicity Properties, Inc., priority 2023, published 2025).

Values joined by “and” are separate entries in the source; they are usually repeats but may differ in a detail not shown here. Equal values may be shown once.

The test addresses α-glucosidase. As to the kind of experiment: α-glucosidase inhibitory activity assay. Conditions: alpha-glucosidase 1 U/ml, P-NPG substrate, 37° C., pH 6.8. Format: biochemical. The method, then: An assay to measure α-glucosidase inhibitory activity of extract and fractions was carried out according to the standard method with minor modification. In a 96-well plate, reaction mixture containing 50 μl phosphate buffer (100 mM, pH=6. 8), 10 μl alpha-glucosidase (1 U/ml), and 20 μl of varying concentrations of extract and fractions (0.1, 0.2, 0.3, 0.4, and 0.5 mg/ml) was preincubated at 37° C. for 15 min. Then, 20 μl P-NPG (5 mM) were added as a substrate and incubated further at 37° C. for 20 min. The reaction was stopped by adding 50 μl Na2 CO3 (0.1 M). The absorbance of the released p-nitrophenol was measured at 405 nm using Multiplate Reader. Acarbose at various concentrations (0.1-0.5 mg/ml) was included as a standard. Without test substance was set up in parallel as a control and each experiment was performed in triplicates. The results were expressed as percentage inhibition, which was calculated using the formula,
Inhibitory activity (%)=(1−As/Ac)×100 • where, As is the absorbance in the presence of test substance and Ac is the absorbance of control.

With `O=C(O[C@@H]1Cc2c(O)cc(O)cc2O[C@@H]1c1cc(O)c(O)c(O)c1)c1cc(O)c(O)c(O)c1` [EGCG, epigallocatechin gallate], the “IC50 values of α-glucosidase” value is 138 µg/mL and 138.6 µg/mL.
